{
  "source": "patent US6342368B1",
  "about": "“WD-40-derived peptides and uses thereof” (The Board of Trustees of the Leland Stanford Junior …, priority 1994, dated 2002)",
  "data": [
    {"test_system": "PKC binding to recombinant RACK1", "assay": "Overlay / overlay-extraction assay: inhibition of PKC binding to recombinant RACK1 by peptides", "parameters": "species or system rat", "conditions": "10 μM peptide preincubated with PKC", "experimental": "The variation in the overlay protocol consisted of incubating the putative binding peptides with a mixture of PKC isozymes for 15 minutes at room temperature before the mixture was used to contact the nitrocellulose strips containing immobilized RACK1.\nNitrocellulose strips containing immobilized RACK1, that had been contacted with a solution containing a mixture of PKC isozymes, were washed and the area corresponding to the 36 kDa (RACK1-containing) band was cut out. The pieces (containing PKC/RACK1 complexes) were incubated with sample buffer for 10 minutes at 80° C. The sample buffer and the nitrocellulose pieces were then placed in wells in the PAGE gel and subjected to SDS-PAGE to elute the bound proteins. The gel was blotted onto nitrocellulose and a Western blot analysis was carried out using the mixture of antibodies (specific for PKC α, β, γ, δ, ε and ζ isozymes) described in Example 1 part B. Bound antibodies were detected by ^125I-protein A.\nPeptides derived from or homologous to WD-40 repeats of RACK1 were tested for their ability to inhibit PKC binding to recombinant RACK1. Binding of PKC to RACK1 was carried out using a variation of the overlay procedure described in Example 3 part B. In the experimental samples, peptides were incubated with a solution containing a mixture of rat brain PKC isozymes (˜10 nM each) for 15 minutes at room temperature.\nFollowing completion of the modified overlay protocol, the samples were subjected to the overlay-extraction protocol detailed in part B, above.\nThe results in FIG. 3 show the binding of PKC to RACK1, carried out without (lane 1) or with (lanes 2-4) a preincubation of peptides with PKC. […] Peptide I caused an 81±6% inhibition of PKC binding to recombinant RACK1 as compared with binding in the absence of added peptide (n=3). Lanes 3 and 4 show PKC binding following a preincubation with 10 μM peptide rIII (SEQ ID NO:4) and 10 μM peptide rVI (SEQ ID NO:7), respectively. […] The results shown are representative of three independent experiments.", "values": [
      {"substance": "peptide rII: synthetic peptide based on the corresponding region of RACK1 WD-40 repeat II (FVSDVVI)", "inhibition of PKC binding to RACK1 (in words)": "effective inhibitors"},
      {"substance": "peptide rVII: synthetic peptide based on the corresponding region of RACK1 WD-40 repeat VII (PQCTSLA)", "inhibition of PKC binding to RACK1 (in words)": "no inhibition"},
      {"substance": "rIV: synthetic peptide based on the corresponding region of RACK1 WD-40 repeat IV (VSCVRFS)", "inhibition of PKC binding to RACK1 (in words)": "lesser inhibitory effect"},
      {"substance": "peptide rV: synthetic peptide based on the corresponding region of RACK1 WD-40 repeat V (GYLNTVT)", "inhibition of PKC binding to RACK1 (in words)": "lesser inhibitory effect"},
      {"substance": "peptide rI: synthetic peptide based on the corresponding region of RACK1 WD-40 repeat I (VTQIATT)", "inhibition of PKC binding to RACK1 (in words)": "effective inhibitors"}
    ]}
  ]
}
